“And” between values parts separate entries of the source, which are not always exact repeats. Equal values may be shown once. Read-outs that look alike come from different tables or passages of the source.
Experiments:
Type in all cases: cell-based
P. mirabilis = experiment: Agarose dilution assay (MIC)
[1] = system: various bacterial strains; experiment: Broth dilution assay (MIC)
Description: Typically 100 μl of calcium and magnesium supplemented Mueller Hinton broth is dispensed into each well of a 96-well microtitre plate and 100 μl volumes of two-fold serial dilutions of the peptide are prepared across the plate. One row of wells receives no peptide and is used as a growth control. Each well is inoculated with approximately 5×10^5 CFU of bacteria and the plate is incubated at 35-37° C. for 16-20 hours.
For example, MIC values in μg/ml are established by broth dilution assay (Table 13) or by agarose dilution assay (Table 14) for a series of cationic peptides against various bacterial strains.

[2] = system: E. coli strain ML-35 inner membrane
S. maltophilia = system: S. maltophilia
Candida = experiment: Agarose dilution assay (MIC) against Candida
[3] = system: H460, non-small lung tumor; experiment: Cell death by Cytotox (Promega) lactate dehydrogenase release; conditions: LDH release
In short: (§1)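 Panel included normal blood lymphocytes and endothelial cells as well as leukemia lines. Test agents: APO-peptide variants versus unmodified parent sequences, with cytotoxicity taken from LDH in supernatant.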

[4] = system: P388, lymphocytic leukemia; experiment: as above; conditions: LDH release
In short: as §1

[5] = system: MCF-7ADR, breast carcinoma, multidrug resistant; experiment: as above; conditions: LDH release
In short: as §1

[6] = system: PBL, peripheral blood lymphocytes; experiment: as above; conditions: LDH release
In short: as §1

[7] = system: HUVEC, human umbilical vein endothelial cells; experiment: as above; conditions: LDH release
In short: as §1

MCF-7, breast carcinoma = experiment: as above; conditions: LDH release
In short: as §1

[8] = system: P388ADR, lymphocytic leukemia, multidrug resistant; experiment: as above; conditions: LDH release
In short: as §1

P. vulgaris = experiment: Agarose dilution assay (MIC)
[9] = system: DoHH-2, B-cell cell lymphoma; experiment: Cell death by Cytotox (Promega) lactate dehydrogenase release; conditions: LDH release
In short: as §1

[10] = system: K562, chronic myelogenous leukemia; experiment: as above; conditions: LDH release
In short: as §1

Sequence: ILKKWPWWPWRRK [MBI 11CN]
- MIC (P. mirabilis; P. mirabilis PM002): >128 µg/mL
- MIC ([1]; A. calcoaceticus 8191): 256 µg/mL
- MIC ([1]; E. cloacae 13047): >128 µg/mL
- MIC ([1]; E. coli 25922): 128 µg/mL
- MIC ([1]; E. coli DH1): 64 µg/mL
- MIC ([1]; E. coli ECO003): 64 µg/mL
- MIC ([1]; E. coli KL4): 64 µg/mL
- MIC ([1]; E. faecalis 29212): 64 µg/mL
- MIC ([1]; K. pneumoniae 13883): >128 µg/mL
- MIC ([1]; K. pneumoniae B44): 64 µg/mL
- MIC ([1]; P. aeruginosa 27853): >128 µg/mL
- MIC ([1]; P. aeruginosa 8509041): 256 µg/mL
- MIC ([1]; P. aeruginosa 9308077): 128 µg/mL
- MIC ([1]; P. aeruginosa 9503024): >256 µg/mL
- MIC ([1]; P. aeruginosa H650): 256 µg/mL
- MIC ([1]; P. aeruginosa H652): 256 µg/mL
- MIC ([1]; S. aureus 25923): 32 µg/mL
- MIC ([1]; S. aureus 27217): 64 µg/mL
- MIC ([1]; S. aureus 29213): 32 µg/mL
- MIC ([1]; S. aureus 33593): 64 µg/mL
- MIC ([1]; S. aureus 8402093): 32 µg/mL
- MIC ([1]; S. aureus 8809014): 32 µg/mL
- MIC ([1]; S. aureus 8809025): 64 µg/mL
- MIC ([1]; S. epidermidis 14990): 8 µg/mL
- MIC ([1]; S. maltophilia 13637): 128 µg/mL
- MIC ([1]; S. maltophilia H361): 64 µg/mL
- MIC ([1]; S. marcescens 13880): >128 µg/mL
- MIC ([1]; S. marcescens B21): >256 µg/mL
- ONPG hydrolysis diminished compared to no pre-incubation ([2]; cells pre-incubated with valinomycin): approximately 50%
- MIC (S. maltophilia; S. maltophilia SMA001): 64 µg/mL
- MIC (Candida; C. albicans CA001): 128 µg/mL
- MIC (Candida; C. albicans CA002): 64 µg/mL
- MIC (Candida; C. albicans CA003): 128 µg/mL
- MIC (Candida; C. albicans CA004): 64 µg/mL
- MIC (Candida; C. albicans CA005): 128 µg/mL
- MIC (Candida; C. albicans CA006): 128 µg/mL
- MIC (Candida; C. albicans CA007): 128 µg/mL
- MIC (Candida; C. albicans CA008): 64 µg/mL
- MIC (Candida; C. albicans CA009): 64 µg/mL
- MIC (Candida; C. albicans CA010): 128 µg/mL
- MIC (Candida; C. albicans CA011): 64 µg/mL
- MIC (Candida; C. albicans CA012): 128 µg/mL
- MIC (Candida; C. albicans CA013): 128 µg/mL
- MIC (Candida; C. albicans CA014): 64 µg/mL
- MIC (Candida; C. albicans CA015): 128 µg/mL
- MIC (Candida; C. albicans CA016): 128 µg/mL
- MIC (Candida; C. albicans CA017): 128 µg/mL
- MIC (Candida; C. albicans CA018): 128 µg/mL
- MIC (Candida; C. albicans CA019): 128 µg/mL
- MIC (Candida; C. albicans CA020): 128 µg/mL
- MIC (Candida; C. albicans CA021): 128 µg/mL
- MIC (Candida; C. albicans CA022): 32 µg/mL
- MIC (Candida; C. albicans CA023): 128 µg/mL
- MIC (Candida; C. albicans CA024): 16 µg/mL
- MIC (Candida; C. glabrata CGL001): >128 µg/mL
- MIC (Candida; C. glabrata CGL002): >128 µg/mL
- MIC (Candida; C. glabrata CGL003): >128 µg/mL
- MIC (Candida; C. glabrata CGL004): >128 µg/mL
- MIC (Candida; C. glabrata CGL005): >128 µg/mL
- MIC (Candida; C. glabrata CGL009): >128 µg/mL
- MIC (Candida; C. glabrata CGL010): >128 µg/mL
- MIC (Candida; C. krusei CKR001): 0.5 µg/mL
- MIC (Candida; C. tropicalis CTR001): 4 µg/mL
- MIC (Candida; C. tropicalis CTR002): 4 µg/mL
- MIC (Candida; C. tropicalis CTR003): 8 µg/mL
- MIC (Candida; C. tropicalis CTR004): 4 µg/mL
- MIC (Candida; C. tropicalis CTR005): 4 µg/mL
- MIC (Candida; C. tropicalis CTR006): 16 µg/mL
- MIC (Candida; C. tropicalis CTR007): 16 µg/mL
- MIC (Candida; C. tropicalis CTR008): 8 µg/mL
- MIC (Candida; C. tropicalis CTR009): 8 µg/mL
- LC50 ± S.E., H460 [3]: 200 µg/mL
- LC50 ± S.E., P388 [4]: 30 µg/mL
- LC50 ± S.E., MCF-7 ADR [5]: 17 ± 1 µg/mL
- LC50 ± S.E., PBL [6]: 57 µg/mL
- LC50 ± S.E., HUVEC [7]: >190 µg/mL
- LC50 ± S.E., MCF-7 (MCF-7, breast carcinoma): 11.8 ± 9 µg/mL
- LC50 ± S.E., P388 ADR [8]: 25 µg/mL

Sequence: ILKKFPFFPFRRK [MBI 11A1CN]
- MIC ([1]; A. calcoaceticus 8191): >256 µg/mL
- MIC ([1]; E. cloacae 13047): >256 µg/mL
- MIC ([1]; E. coli 25922): 512 µg/mL
- MIC ([1]; E. coli DH1): 128 µg/mL
- MIC ([1]; E. coli ECO003): >256 µg/mL
- MIC ([1]; E. coli KL4): 256 µg/mL
- MIC ([1]; E. faecalis 29212): >256 µg/mL
- MIC ([1]; K. pneumoniae 13883): >256 µg/mL
- MIC ([1]; K. pneumoniae B44): >256 µg/mL
- MIC ([1]; P. aeruginosa 27853): >256 µg/mL
- MIC ([1]; P. aeruginosa 8509041): >256 µg/mL
- MIC ([1]; P. aeruginosa 9308077): >256 µg/mL
- MIC ([1]; P. aeruginosa 9503024): >256 µg/mL
- MIC ([1]; P. aeruginosa H650): >256 µg/mL
- MIC ([1]; P. aeruginosa H652): >256 µg/mL
- MIC ([1]; S. aureus 25923): 512 µg/mL
- MIC ([1]; S. aureus 27217): >256 µg/mL
- MIC ([1]; S. aureus 29213): 512 µg/mL
- MIC ([1]; S. aureus 33593): >256 µg/mL
- MIC ([1]; S. aureus 8402093): >256 µg/mL
- MIC ([1]; S. aureus 8809014): >256 µg/mL
- MIC ([1]; S. aureus 8809025): >256 µg/mL
- MIC ([1]; S. epidermidis 14990): 512 µg/mL
- MIC ([1]; S. maltophilia 13637): 256 µg/mL
- MIC ([1]; S. maltophilia H361): 256 µg/mL
- MIC ([1]; S. marcescens 13880): >256 µg/mL
- MIC ([1]; S. marcescens B21): >256 µg/mL
- MIC (P. vulgaris; P. vulgaris SBPV1): >128 µg/mL
- Peptide MIC values (P. vulgaris; agarose dilution, P. vulgaris ATCC 13315): >128 µg/mL
- MIC (S. maltophilia; S. maltophilia SMA002): >128 µg/mL

Sequence: ILRWPWWPWRRK [MBI 11B7CN]
- MIC (P. mirabilis; P. mirabilis strain PM002): >128 µg/mL
- time of maximum activity in growth cycle [2]: 140 min and 230 min
- MIC, Peptide (S. maltophilia; S. maltophilia SMA002, unmodified parent peptide): 16 µg/mL
- MIC (S. maltophilia; S. maltophilia strain SMA004): 128 µg/mL
- MIC (Candida; C. albicans CA001): 64 µg/mL
- MIC (Candida; C. albicans CA002): 32 µg/mL
- MIC (Candida; C. albicans CA003): 64 µg/mL
- MIC (Candida; C. albicans CA004): 32 µg/mL
- MIC (Candida; C. albicans CA005): 32 µg/mL
- MIC (Candida; C. albicans CA006): 64 µg/mL
- MIC (Candida; C. albicans CA007): 64 µg/mL
- MIC (Candida; C. albicans CA008): 32 µg/mL
- MIC (Candida; C. albicans CA009): 32 µg/mL
- MIC (Candida; C. albicans CA010): 64 µg/mL
- MIC (Candida; C. albicans CA011): 64 µg/mL
- MIC (Candida; C. albicans CA012): 64 µg/mL
- MIC (Candida; C. albicans CA013): 64 µg/mL
- MIC (Candida; C. albicans CA014): 32 µg/mL
- MIC (Candida; C. albicans CA015): 64 µg/mL
- MIC (Candida; C. albicans CA016): 64 µg/mL
- MIC (Candida; C. albicans CA017): 64 µg/mL
- MIC (Candida; C. albicans CA018): 64 µg/mL
- MIC (Candida; C. albicans CA019): 64 µg/mL
- MIC (Candida; C. albicans CA020): 32 µg/mL
- MIC (Candida; C. albicans CA021): 32 µg/mL
- MIC (Candida; C. albicans CA022): 32 µg/mL
- MIC (Candida; C. albicans CA023): 64 µg/mL
- MIC (Candida; C. albicans CA024): 8 µg/mL
- MIC (Candida; C. glabrata CGL001): 128 µg/mL
- MIC (Candida; C. glabrata CGL002): 128 µg/mL
- MIC (Candida; C. glabrata CGL003): 128 µg/mL
- MIC (Candida; C. glabrata CGL004): 128 µg/mL
- MIC (Candida; C. glabrata CGL005): 128 µg/mL
- MIC (Candida; C. glabrata CGL009): 128 µg/mL
- MIC (Candida; C. glabrata CGL010): 128 µg/mL
- MIC (Candida; C. krusei CKR001): 1 µg/mL
- MIC (Candida; C. tropicalis CTR001): 4 µg/mL
- MIC (Candida; C. tropicalis CTR002): 8 µg/mL
- MIC (Candida; C. tropicalis CTR003): 8 µg/mL
- MIC (Candida; C. tropicalis CTR004): 8 µg/mL
- MIC (Candida; C. tropicalis CTR005): 4 µg/mL
- MIC (Candida; C. tropicalis CTR006): 8 µg/mL
- MIC (Candida; C. tropicalis CTR007): 8 µg/mL
- MIC (Candida; C. tropicalis CTR008): 4 µg/mL
- MIC (Candida; C. tropicalis CTR009): 4 µg/mL
- LC50 ± S.E., H460 [3]: 26 ± 25 µg/mL
- LC50 ± S.E., P388 [4]: 13.8 µg/mL
- LC50 ± S.E., PBL [6]: 24 ± 10 µg/mL
- LC50 ± S.E., DoHH-2 [9]: 16.5 ± 3 µg/mL
- LC50 ± S.E., HUVEC [7]: 90 ± 23 µg/mL
- LC50 ± S.E., MCF-7 (MCF-7, breast carcinoma): >700 µg/mL
- LC50 ± S.E., K562 [10]: 34 ± 25 µg/mL

Source: patent US20020035061A1, “COMPOSITIONS AND METHODS FOR TREATING INFECTIONS USING CATIONIC PEPTIDES ALONE OR IN COMBINATION WITH ANTIBIOTICS” (priority 1996, published 2002)
